Source: article PMC10837484 (Clinical and Translational Science, 2024)

How the values were obtained:
LTA4H [1] = biological target: T1, LTA4H (Homo sapiens, UniProt P09960); settings: cited from earlier work
T1 sequence (P09960 1-611): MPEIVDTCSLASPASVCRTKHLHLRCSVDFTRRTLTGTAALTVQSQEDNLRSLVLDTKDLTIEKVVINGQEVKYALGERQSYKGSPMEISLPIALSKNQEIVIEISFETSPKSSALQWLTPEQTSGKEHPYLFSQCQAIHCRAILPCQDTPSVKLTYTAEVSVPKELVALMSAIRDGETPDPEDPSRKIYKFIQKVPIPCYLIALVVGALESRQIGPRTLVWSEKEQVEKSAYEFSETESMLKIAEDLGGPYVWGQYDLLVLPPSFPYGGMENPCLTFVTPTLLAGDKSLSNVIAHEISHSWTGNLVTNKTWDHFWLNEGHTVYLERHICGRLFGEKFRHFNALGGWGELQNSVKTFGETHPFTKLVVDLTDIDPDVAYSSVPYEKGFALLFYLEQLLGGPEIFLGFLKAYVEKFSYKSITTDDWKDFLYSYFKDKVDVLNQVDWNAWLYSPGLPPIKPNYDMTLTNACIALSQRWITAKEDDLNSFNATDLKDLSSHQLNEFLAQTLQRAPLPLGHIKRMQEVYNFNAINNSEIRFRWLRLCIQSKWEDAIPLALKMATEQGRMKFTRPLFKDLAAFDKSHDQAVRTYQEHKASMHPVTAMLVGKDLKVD

LTA4H [2] = settings: cited from earlier work
LTA4H [3] = biological target: T1, LTA4H; settings: patients with asthma; cited from earlier work
[4] = Dog PK/PD study: LYS006 in blood and plasma; type: in vivo, male beagle dogs
[5] = First-in-human study: LYS006 concentrations in plasma and blood; type: in vivo; settings: for concentration at 24 h: blood level, 24 h timepoint
[6] = First-in-human study: safety and tolerability; type: in vivo
[7] = cited from earlier work
in vivo = settings: male, Wistar, rat, 3 mg/kg
[8] = cited from earlier work; remark: listed apart in the source
[9] = 0.5 mg/kg p.o. q.d., after fifth dose
[10] = SAD part, LYS006 treated participants

In the case of O=C(O)CCCN1CCC[C@H]1COc1ccc(Oc2ccc(Cl)cc2)cc1 [DG‐051], the “LTB4 reduction in ex vivo stimulated blood” value (LTA4H [1]; after 7 days of once daily treatment) is listed as “up to 70%” and the “in vitro potency relative to other clinical LTA4H inhibitors” value (LTA4H [2]) is listed as “lowest potency”.

For CC(=O)NC1C[C@H]2CC[C@@H](C1)N2Cc1ccc(Oc2nc3ncccc3s2)cc1 (stereo partly shown) [JNJ‐40929837], the “reduction of LTB4 levels” value (LTA4H [1]; over a 24 h period at doses of 100 mg) is listed as “greater than 95%”, the “reduction in sputum LTB4” value (LTA4H [3]) is listed as 92% and the “potency in in vitro cellular assays” value (LTA4H [2]) is listed as “highly potent”.

Compound N[C@@H](CC(=O)O)Cn1nnc(-c2ccc(Oc3ncc(Cl)cc3F)cc2)n1 [LYS006] has a peak blood concentration [4, 9] of 55 ng/mL, a peak plasma concentration [4, 9] of 5.5 ng/mL and a peak blood level ([4]; 3 mg/kg p.o., first dose, 1 h) of 71 ng/mL. For the same compound, the peak plasma level ([4]; 3 mg/kg p.o., first dose, 1 h) was 36 ng/mL, the concentration at 24 h ([4]; male, beagle, in vivo, po, 0.5 mg/kg, plasma Ctrough, 0.5 mg/kg p.o., first dose) was about 3 ng/mL and the trough blood level ([5]; MAD, 15 mg q.d.) was ~ 35 ng/mL. The trough plasma level ([5]; MAD, 15 mg q.d.) was ~ 2 ng/mL, the “blood exposure after end-of-treatment” value ([5]; MAD, after last dose on day 12) was 30 to 40 ng/mL and the “plasma level after end-of-treatment” value ([5]; MAD, after last dose on day 12) was 1 to 2 ng/mL. It also gave a concentration at 24 h ([5]; both, human, in vivo, 5 mg, SAD) of 29.4 ng/mL, a concentration at 24 h ([5]; both, human, in vivo, 70 mg, SAD) of 37.1 ng/mL and a concentration at 12 h ([5]; both, human, in vivo, blood concentration, SAD, 12 h after administration) of 30 to 50 ng/mL. For the same compound, the “AE severity: Mild” value ([6]; FE cohorts, 10 mg, N = 12) was 8 (66.6) n (%), the “AE severity: Moderate” value ([6]; FE cohorts, 10 mg, N = 12) was 0 (0) n (%) and the “AE severity: Severe” value ([6]; FE cohorts, 10 mg, N = 12) was 0 (0) n (%). The “AEs leading to discontinuation” value ([6]; FE cohorts, 10 mg, N = 12) was 0 (0) n (%), the “Abdominal discomfort or pain” value ([6]; FE cohorts, 10 mg, N = 12) was 2 (16.7) n (%) and the Amylase increase ([6]; FE cohorts, 10 mg, N = 12) was 0 (0) n (%). The Back pain ([6]; FE cohorts, 10 mg, N = 12) was 0 (0) n (%), the “Blood CPK elevation” value ([6]; FE cohorts, 10 mg, N = 12) was 0 (0) n (%) and the Breast pain ([6]; FE cohorts, 10 mg, N = 12) was 0 (0) n (%). For the same compound, the Deaths ([6]; FE cohorts, 10 mg, N = 12) was 0 (0) n (%), the Diarrhea ([6]; FE cohorts, 10 mg, N = 12) was 0 (0) n (%) and the Dizziness ([6]; FE cohorts, 10 mg, N = 12) was 0 (0) n (%). For the same compound, the Dry skin ([6]; FE cohorts, 10 mg, N = 12) was 2 (16.7) n (%), the Feeling cold ([6]; FE cohorts, 10 mg, N = 12) was 2 (16.7) n (%) and the Headache ([6]; FE cohorts, 10 mg, N = 12) was 1 (8.3) n (%). For the same compound, the Lipase elevation ([6]; FE cohorts, 10 mg, N = 12) was 0 (0) n (%), the Nausea ([6]; FE cohorts, 10 mg, N = 12) was 0 (0) n (%) and the Pruritus ([6]; FE cohorts, 10 mg, N = 12) was 0 (0) n (%). The SAEs ([6]; FE cohorts, 10 mg, N = 12) was 0 (0) n (%), the “Study drug-related AEs” value ([6]; FE cohorts, 10 mg, N = 12) was 0 (0) n (%) and the Viral respiratory infection ([6]; FE cohorts, 10 mg, N = 12) was 3 (25) n (%). For the same compound, the Feeling cold ([6]; FE part, 10 mg) was 16.7%, the abdominal pain ([6]; FE part, 10 mg) was 16.7% and the dry skin ([6]; FE part, 10 mg) was 16.7%. For the same compound, the “viral upper respiratory tract infection” value ([6]; FE part, 10 mg) was 25.0%, the “participants with at least one AE” value ([6]; FE part, 10 mg fasted or fed, 12 patients) was 66.7% and the “AE severity: Mild” value ([6]; MAD cohorts, all doses, N = 30) was 22 (73.3) n (%). The “AE severity: Moderate” value ([6]; MAD cohorts, all doses, N = 30) was 4 (13.3) n (%), the “AE severity: Severe” value ([6]; MAD cohorts, all doses, N = 30) was 4 (13.3) n (%) and the “AEs leading to discontinuation” value ([6]; MAD cohorts, all doses, N = 30) was 0 (0) n (%). For the same compound, the “Abdominal discomfort or pain” value ([6]; MAD cohorts, all doses, N = 30) was 2 (6.7) n (%), the Amylase increase ([6]; MAD cohorts, all doses, N = 30) was 2 (6.7) n (%) and the Back pain ([6]; MAD cohorts, all doses, N = 30) was 2 (6.7) n (%). The “Blood CPK elevation” value ([6]; MAD cohorts, all doses, N = 30) was 5 (16.7) n (%), the Breast pain ([6]; MAD cohorts, all doses, N = 30) was 0 (0) n (%) and the Deaths ([6]; MAD cohorts, all doses, N = 30) was 0 (0) n (%). For the same compound, the Diarrhea ([6]; MAD cohorts, all doses, N = 30) was 1 (3.3) n (%), the Dizziness ([6]; MAD cohorts, all doses, N = 30) was 2 (6.7) n (%) and the Dry skin ([6]; MAD cohorts, all doses, N = 30) was 0 (0) n (%). For the same compound, the Feeling cold ([6]; MAD cohorts, all doses, N = 30) was 0 (0) n (%), the Headache ([6]; MAD cohorts, all doses, N = 30) was 8 (26.7) n (%) and the Lipase elevation ([6]; MAD cohorts, all doses, N = 30) was 3 (10) n (%). For the same compound, the Nausea ([6]; MAD cohorts, all doses, N = 30) was 2 (6.7) n (%), the Pruritus ([6]; MAD cohorts, all doses, N = 30) was 0 (0) n (%) and the SAEs ([6]; MAD cohorts, all doses, N = 30) was 0 (0) n (%). The “Study drug-related AEs” value ([6]; MAD cohorts, all doses, N = 30) was 5 (16.7) n (%), the “Subjects with at least one AE” value ([6]; MAD cohorts, all doses, N = 30) was 23 (76.7) n (%) and the Viral respiratory infection ([6]; MAD cohorts, all doses, N = 30) was 2 (6.7) n (%). The “participants with AEs” value ([6]; MAD part, 30 LYS006-treated participants) was 76.7%, the “AEs of severe intensity (grade 3)” value ([6]; MAD part, LYS006-treated participants) was 13.3% and the Headache ([6]; MAD part, LYS006 group) was 26.7%. For the same compound, the Lipase elevation ([6]; MAD part, LYS006 group) was 10%, the “creatine phosphokinase (CPK) elevation” value ([6]; MAD part, LYS006 group) was 16.7% and the “number of AEs of severe intensity related to CPK elevations” value ([6]; MAD, LYS006 group, transient) was “two”. The “number of lipase elevations of severe intensity (grade 3)” value ([6]; MAD, LYS006 group, transient) was “Two”, the “AE severity: Mild” value ([6]; SAD cohorts, all doses, N = 51) was 18 (35.3) n (%) and the “AE severity: Moderate” value ([6]; SAD cohorts, all doses, N = 51) was 2 (3.9) n (%). The “AE severity: Severe” value ([6]; SAD cohorts, all doses, N = 51) was 1 (2) n (%), the “AEs leading to discontinuation” value ([6]; SAD cohorts, all doses, N = 51) was 0 (0) n (%) and the “Abdominal discomfort or pain” value ([6]; SAD cohorts, all doses, N = 51) was 4 (7.8) n (%). The Amylase increase ([6]; SAD cohorts, all doses, N = 51) was 0 (0) n (%), the Back pain ([6]; SAD cohorts, all doses, N = 51) was 1 (2) n (%) and the “Blood CPK elevation” value ([6]; SAD cohorts, all doses, N = 51) was 0 (0) n (%). The Breast pain ([6]; SAD cohorts, all doses, N = 51) was 0 (0) n (%), the Deaths ([6]; SAD cohorts, all doses, N = 51) was 0 (0) n (%) and the Diarrhea ([6]; SAD cohorts, all doses, N = 51) was 2 (3.9) n (%). For the same compound, the Dizziness ([6]; SAD cohorts, all doses, N = 51) was 1 (2) n (%), the Dry skin ([6]; SAD cohorts, all doses, N = 51) was 0 (0) n (%) and the Feeling cold ([6]; SAD cohorts, all doses, N = 51) was 0 (0) n (%). For the same compound, the Headache ([6]; SAD cohorts, all doses, N = 51) was 3 (5.9) n (%), the Lipase elevation ([6]; SAD cohorts, all doses, N = 51) was 2 (3.9) n (%) and the Nausea ([6]; SAD cohorts, all doses, N = 51) was 0 (0) n (%). For the same compound, the Pruritus ([6]; SAD cohorts, all doses, N = 51) was 2 (3.9) n (%), the SAEs ([6]; SAD cohorts, all doses, N = 51) was 0 (0) n (%) and the “Study drug-related AEs” value ([6]; SAD cohorts, all doses, N = 51) was 4 (7.8) n (%). The “Subjects with at least one AE” value ([6]; SAD cohorts, all doses, N = 51) was 19 (37.3) n (%), the Viral respiratory infection ([6]; SAD cohorts, all doses, N = 51) was 0 (0) n (%) and the “participants with AEs” value ([6]; SAD part, 51 LYS006 treated participants) was 37.3%. For the same compound, the “Abdominal discomfort or pain” value [6, 10] was 7.8%, the Diarrhea [6, 10] was 3.9% and the Headache [6, 10] was 5.9%. For the same compound, the tolerability ([6]; SAD, FE and MAD parts, all study participants) was “well‐tolerated”, the dose-limiting toxicity ([6]; healthy participants, up to 80 mg b.i.d.) was “No dose‐limiting toxicity” and the “lipase increase, only AE of severe intensity (grade 3) in SAD” value ([6]; one participant, single dose 5 mg, day 8 after dosing, no clinical sign) was at least 2 × ULN. For the same compound, the “time to maximum plasma concentration (Tmax)” value ([7]; clinical PK) was 1 to 2 h, the “parent compound excreted into the urine” value ([7]; human) was 90% and the concentration at 4 h (in vivo) was over 1000 ng/mL.

In the case of O=C(O)c1ccc(CN2C[C@@H]3C[C@H]2CN3Cc2ccc(Oc3ccc(-c4ncco4)cc3)cc2)cc1 [acebilustat], the “maximum PD effect, reduction of LTB4 at peak in ex vivo stimulated blood” value (LTA4H [1]; highest tested dose 200 mg q.d.) is given as 89%.

In the case of CC(c1cc2ccccc2s1)N(O)C(N)=O (stereo not shown) [zileuton], the “effect on liver transaminases” value [8] is given as “elevates liver transaminases”.
